Measurements reported in patent publication US20050142581A1, “Microrna as ligands and target molecules” (priority 2003, published 2005).
Several values for one entry are separate records, joined by “and”; a condition that tells them apart may be missing. Identical values can stand only once. Entries after “also recorded” stand apart in the source; their conditions may differ. Oligonucleotides are written 5' to 3', each unit as a sugar letter and its base; * is a phosphorothioate linkage, no mark a phosphodiester; rarer units and linkages stand in square brackets, end groups in braces. Plain capitals give the bases only. e = 2'-O-(2-methoxyethyl) (MOE); [5mC] = 5-methylcytosine; d = 2'-deoxy (DNA)

Assays:
[1] = system: 27 nucleotide fragment of bacterial 16S ribosomal RNA incorporating the A-site; assay: ESI-FT-ICR mass spectrometry detection of non-covalent ligand complexes with 16S RNA fragment; assay type: binding; details: for ion abundance of binary complex relative to unbound 16S RNA: 200 μM ligand, 5 μM target 16S RNA fragment; for ion abundance of binary complex relative to unbound 16S RNA / relative binding affinity from comparison of ion abundance of binary complexes: mass spectrometry; for relative binding affinity from comparison of ion abundance of binary complexes: 16S RNA fragment; for mode of binding interaction of two ligands for the target RNA: ligand pair mixed with 5 μM 16S RNA fragment, presence and abundance of ternary complex
Excerpt: Ligands bind competitively for a target when the binding of one ligand prevents the binding of the other ligand is the result of the ligands binding to the target at the same location. In this situation, the mixture contains an equilibrium of two binary complexes, one of which being one ligand bound to the target and the other being the other ligand bound to the target. The ligand having the greater affinity for the target will predominate and thus have higher signal intensity for its binary complex with the target compared to the other ligand. Competitive binding interaction between two ligands is determined according to methods of the invention by analyzing the mixture by mass-spectrometry to detect the presence or lack of signal corresponding to a ternary complex where both ligands are bound to the target at the same time. The lack of signal for a ternary complex indicates a competitive binding interaction between the two ligands while the presence of the signal indicates a non-competitive interaction.
Ligands bind concurrently when the binding of one ligand to the target is unaffected by the binding of the other and is a consequence of the ligands binding to the target at distinct sites. […] The ligand having the greater affinity for the target will have higher signal intensity for its binary complex with the target compared to the other ligand. […] Particularly, the absolute ion abundance of the ternary complex (TL1L2) is compared to the relative ion abundance of the binary complexes (TL1 and TL2) which contribute to the formation of the ternary complex with respect to the unbound target (TL1×TL2/T). Since there are two binary complexes contributing the formation of the ternary complex, the comparison is with the sum of the two contributing binary complexes i.e. TL1×TL2/T+TL2×TL1/T. If the absolute ion abundance of the ternary complex is equal to the sum of the relative ion abundance of the contributing binary complexes, then the two ligands concurrently bind to the target substrate. […] The relative ion abundance of the ternary complex (16S+2−DOS+DT) with respect to the unbound 16S target RNA (16S) is equal, within limits of error, to the sum of the relative ion abundance of the contributing binary complex ((16S+DT)×(16S+2−DOS)) with respect to the unbound target (16S) and the contributing binary complex ((16S+2−DOS)+(16S+DT)) with respect to the unbound target (16S).
All MS experiments were performed by using an Apex II 70e ESI-FT-ICR MS (Bruker Daltonics, Billerica, Mass.) with an actively shielded 7 tesla superconducting magnet. RNA solutions were prepared in 50 mM NH4OAc (pH 7), mixed with 10% isopropanol to aid desolvation, and infused at a rate of 1.5 μL/min by using a syringe pump. Ions were formed in a modified electrospray source (Analytica, Branford, Conn.) by using an off-axis grounded electrospray probe positioned about 1.5 cm from the metallized terminus of the glass desolvation capillary biased at 5,000 V. A countercurrent flow of dry […] gas heated to 150° C. was used to assist in the desolvation process. Ions were accumulated in an external ion reservoir comprised of a radio frequency-only hexapole, a skimmer cone, and an auxiliary electrode for 1,000 ms before transfer into the trapped ion cell for mass analysis. Each spectrum was the result of the co-addition of 64 transients comprised of 524,288 data points acquired over a […] bandwidth, resulting in a 1.2-sec detection interval. All aspects of pulse sequence control, data acquisition, and postacquisition processing were performed by using a Bruker Daltonics data station running XMASS Version 4.0 on a Silicon Graphics (Mountain View, Calif.) R5000 computer.
RNA binding ligands are selected from a set of compounds using mass spectrometry. The RNA used for the target molecule is an RNA whose electrospray ionization properties have been optimized in conjunction with optimization of the electrospray ionization and desolvation conditions. […]

human CD40 mRNA = assay: Inhibition of CD40 mRNA levels by oligonucleotides (real-time RT-PCR); assay type: cell-based; parameters: concentration or dose not given beside the values; details: 2'-MOE gapmers, 18 nucleotides, phosphorothioate throughout; averaged from three experiments
Method in brief: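 Cells at ~80% confluency were transfected with oligonucleotide at 150 nM final using Lipofectin 3.75 μg/ml for 4 h and harvested 16 h after treatment. Poly(A)+ mRNA was taken for TaqMan real-time RT-PCR of CD40, and percent inhibition was derived from a standard curve of untreated control mRNA.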

| Compound | % Inhibition (Inhibition of CD40 mRNA Levels by Chimeric Phosphorothioate Oligonucleotides) (human CD40 mRNA) | further results |
| --- | --- | --- |
| 1-{2-[(3R)-4-((2S)-2-amino-3-hydroxypropanoyl)-3-methylpiperazinyl]-2-oxoethyl}-5-methyl-1,3-dihydropyrimidine-2,4-dione [IBIS-271583] |  | ion abundance of binary complex relative to unbound 16S RNA [1]: 27.8%; ion abundance of binary complex relative to unbound 16S RNA ([1]; listed as IBIS-271483): 52.4%; relative binding affinity from comparison of ion abundance of binary complexes [1]: greater affinity for 16S than either parent compound; relative binding affinity from comparison of ion abundance of binary complexes ([1]; listed as IBIS-271483): greater affinity for the target 16S RNA than either of the parent compounds |
| 19270 (eG*eT*e[5mC]*eT*dT*dG*dT*dT*dT*dG*dT*dG*dC*dC*eT*eG*e[5mC]*e[5mC]; antisense) [compound 19270] | 68.95% |  |
| 19271 (e[5mC]*e[5mC]*eA*e[5mC]*dA*dG*dA*dC*dA*dA*dC*dA*dT*dC*eA*eG*eT*e[5mC]; antisense) [compound 19271] | 11.22% |  |
| 19272 (e[5mC]*eT*eG*eG*dG*dG*dA*dC*dC*dA*dC*dA*dG*dA*e[5mC]*eA*eA*e[5mC]; antisense) [compound 19272] | 9.04% |  |
| 19273 (eT*e[5mC]*eA*eG*dC*dC*dG*dA*dT*dC*dC*dT*dG*dG*eG*eG*eA*e[5mC]; antisense) [compound 19273] | 0.00% |  |
| 19274 (e[5mC]*eA*e[5mC]*e[5mC]*dA*dC*dC*dA*dG*dG*dG*dC*dT*dC*eT*e[5mC]*eA*eG; antisense) [compound 19274] | 23.08% |  |
| 19275 (eG*eG*eG*eA*dT*dC*dA*dC*dC*dA*dC*dC*dA*dG*eG*eG*e[5mC]*eT; antisense) [compound 19275] | 57.94% |  |
| 19276 (eG*eA*eG*eG*dA*dT*dG*dG*dC*dA*dA*dA*dC*dA*eG*eG*eA*eT; antisense) [compound 19276] | 49.14% |  |
| 19277 (eA*e[5mC]*e[5mC]*eA*dG*dC*dA*dC*dC*dA*dA*dG*dA*dG*eG*eA*eT*eG; antisense) [compound 19277] | 3.48% |  |
| 19278 (eT*eT*eT*eT*dG*dA*dT*dA*dA*dA*dG*dA*dC*dC*eA*eG*e[5mC]*eA; antisense) [compound 19278] | 30.58% |  |
| 19279 (eT*eA*eT*eT*dG*dG*dT*dT*dG*dG*dC*dT*dT*dC*eT*eT*eG*eG; antisense) [compound 19279] | 49.26% |  |
| 19280 (eG*eG*eG*eT*dT*dC*dC*dT*dG*dC*dT*dT*dG*dG*eG*eG*eT*eG; antisense) [compound 19280] | 13.95% |  |
| 19281 (eG*eT*e[5mC]*eG*dG*dG*dA*dA*dA*dA*dT*dT*dG*dA*eT*e[5mC]*eT*e[5mC]; antisense) [compound 19281] | 54.78% |  |
| 19282 (eG*eA*eT*e[5mC]*dG*dT*dC*dG*dG*dG*dA*dA*dA*dA*eT*eT*eG*eA; antisense) [compound 19282] | 0.00% |  |
| 19283 (eG*eG*eA*eG*dC*dC*dA*dG*dG*dA*dA*dG*dA*dT*e[5mC]*eG*eT*e[5mC]; antisense) [compound 19283] | 69.47% |  |
| 19284 (eT*eG*eG*eA*dG*dC*dC*dA*dG*dG*dA*dA*dG*dA*eT*e[5mC]*eG*eT; antisense) [compound 19284] | 54.48% |  |

| Compound | % Inhibition (Inhibition of CD40 mRNA Levels by Chimeric Phosphorothioate Oligonucleotides) (human CD40 mRNA) | further results |
| --- | --- | --- |
| 19285 (eT*eG*eG*eA*dG*dC*dA*dG*dC*dA*dG*dT*dG*dT*eT*eG*eG*eA; antisense) [compound 19285] | 15.17% |  |
| 19286 (eG*eT*eA*eA*dA*dG*dT*dC*dT*dC*dC*dT*dG*dC*eA*e[5mC]*eT*eG; antisense) [compound 19286] | 30.62% |  |
| 19288 (e[5mC]*eG*eG*eT*dT*dG*dG*dC*dA*dT*dC*dC*dA*dT*eG*eT*eA*eA; antisense) [compound 19288] | 34.49% |  |
| 19289 (e[5mC]*eT*e[5mC]*eT*dT*dT*dG*dC*dC*dA*dT*dC*dC*dT*e[5mC]*e[5mC]*eT*eG; antisense) [compound 19289] | 41.84% |  |
| 19290 (e[5mC]*eT*eG*eT*dC*dT*dC*dT*dC*dC*dT*dG*dC*dA*e[5mC]*eT*eG*eA; antisense) [compound 19290] | 25.68% |  |
| 19291 (eG*eG*eT*eG*dC*dA*dG*dC*dC*dT*dC*dA*dC*dT*eG*eT*e[5mC]*eT; antisense) [compound 19291] | 76.27% |  |
| 19292 (eA*eA*e[5mC]*eT*dG*dC*dC*dT*dG*dT*dT*dT*dG*dC*e[5mC]*e[5mC]*eA*e[5mC]; antisense) [compound 19292] | 63.34% |  |
| 19293 (e[5mC]*eT*eT*e[5mC]*dT*dG*dC*dC*dT*dG*dC*dA*dC*dC*e[5mC]*e[5mC]*eT*eG; antisense) [compound 19293] | 0.00% |  |
| 19294 (eA*e[5mC]*eT*eG*dA*dC*dT*dG*dG*dG*dC*dA*dT*dA*eG*e[5mC]*eT*e[5mC]; antisense) [compound 19294] | 11.55% |  |
| N[C@@H]1C[C@H](N)[C@@H](O)C(O)[C@H]1O (some centres unmarked) [2-DOS, 2-deoxystreptamine, reference compound] |  | relative binding affinity from comparison of ion abundance of binary complexes [1]: greater binding affinity for the target RNA than DT; mode of binding interaction of two ligands for the target RNA [1]: concurrent binding interaction; also recorded: cooperative binding |
| NN1CN(SCc2ccccc2)C=N1 [2-amino-4-benzylthio-1,2,4-triazole] |  | ions of ligand adduct with RNA target observed ([1]; RNA target 5 micromolar, ligand 100 micromolar, ammonium as standard ligand): also seen |
| Nc1n[nH]c(N)n1 [DT, 3,5-diamino-1,2,4-triazole, reference compound] |  | mode of binding interaction of two ligands for the target RNA [1]: concurrent binding interaction; mode of binding interaction of two ligands for the target RNA ([1]; listed as 3,5-DT): cooperative binding; mode of binding interaction of two ligands for the target RNA ([1]; listed as 3,5-diamino-1,2,4-triazole): concurrent binding |
| N[C@@H](CO)C(=O)N1CCNCC1 [IBIS-326611, (2S)-2-amino-3-hydroxy-1-piperazinylpropan-1-one] |  | ion abundance of binary complex relative to unbound 16S RNA [1]: 14.7% and 27.8% |
| Nc1cccc2nc(C3CCNCC3)[nH]c12 [Ibis-326732, 4-amino-2-piperidin-4-ylbenzimidazole] |  | relative binding affinity from comparison of ion abundance of binary complexes [1]: greater affinity than glucosamine; mode of binding interaction of two ligands for the target RNA [1]: competitive displacement of glucosamine; also recorded: competitive binders |
| N[C@H]1C(O)O[C@H](CO)[C@@H](O)[C@@H]1O (some centres unmarked) [glucosamine, reference compound] |  | mode of binding interaction of two ligands for the target RNA [1]: competitive binders; also recorded: displaced from the RNA by addition of a benzimidazole compound |
